Legend:
ducksalad = test: Test D flooded paddy test; type: in vivo, Heteranthera limosa; conditions: 21 days, scale 0 to 100
Text: (§1) Three plastic pots (ca. 16-cm diameter) per rate were partially filled with sterilized Tama silt loam soil comprising a 35:50:15 ratio of sand, silt and clay and 2.6% organic matter. Separate plantings for each of the three pots were as follows. Seeds from the U.S. of ducksalad (Heteranthera limosa (Sw.) Willd.), smallflower umbrella sedge (Cyperus difformis L.) and purple redstem (Ammannia coccinea Rottb.), were planted into one 16-cm pot for each rate. Seeds from the U.S. of rice flatsedge (Cyperus iria L.), bearded sprangletop (Leptochloa fascicularis (Lam.) Gray), one stand of 9 or 10 water seeded rice seedlings (Oryza sativa L. cv. ‘Japonica—M202’), and one stand of 6 transplanted rice seedlings (Oryza sativa L. cv. ‘Japonica—M202’) were planted into one 16-cm pot for each rate. Seeds from the U.S. of barnyardgrass (Echinochloa crus-galli (L.) Beauv.), late watergrass (Echinochloa oryzicola Vasinger), early watergrass (Echinochloa oryzoides (Ard.) Fritsch) and junglerice (Echinochloa colona (L.) Link) were planted into one 16-cm pot for each rate. Plantings were sequential so that crop and weed species were at the 2.0 to 2.5-leaf stage at time of treatment.
(§2) Potted plants were grown in a greenhouse with day/night temperature settings of 29.5/26.7° C., and supplemental balanced lighting was provided to maintain a 16-hour photoperiod. Test pots were maintained in the greenhouse until test completion.
(§3) At time of treatment, test pots were flooded to 3 cm above the soil surface, treated by application of test compounds directly to the paddy water, and then maintained at that water depth for the duration of the test. Effects of treatments on rice and weeds were visually evaluated by comparison to untreated controls after 21 days. Plant response ratings are reported on a 0 to 100 scale; where 0 is no effect and 100 is complete control. A dash (-) response means no test result.

[1] = test system: transplanted rice seedlings; test: Test D flooded paddy test; type: in vivo, Oryza sativa; conditions: 21 days, scale 0 to 100
Text: as §1, §2, §3

[2] = test system: water seeded rice seedlings; test: Test D flooded paddy test; type: in vivo, Oryza sativa; conditions: 21 days, scale 0 to 100
Text: as §1, §2, §3

junglerice = test: Test D flooded paddy test; type: in vivo, Echinochloa colona; conditions: 21 days, scale 0 to 100
Text: as §1, §2, §3

bearded sprangletop = test: Test D flooded paddy test; type: in vivo, Leptochloa fascicularis; conditions: 21 days, scale 0 to 100
Text: as §1, §2, §3

purple redstem = test: Test D flooded paddy test; type: in vivo, Ammannia coccinea; conditions: 21 days, scale 0 to 100
Text: as §1, §2, §3

barnyardgrass = test: Test D flooded paddy test; type: in vivo, Echinochloa crus-galli; conditions: 21 days, scale 0 to 100
Text: as §1, §2, §3

late watergrass = test: Test D flooded paddy test; type: in vivo, Echinochloa oryzicola; conditions: 21 days, scale 0 to 100
Text: as §1, §2, §3

rice flatsedge = test: Test D flooded paddy test; type: in vivo, Cyperus iria; conditions: 21 days, scale 0 to 100
Text: as §1, §2, §3

kochia = test: Test E pre-/postemergence herbicide test; type: in vivo, Kochia scoparia; conditions: Preemergence
Text: (§4) Seeds of plant species selected from bipinnate beggarticks (Bidens bipinnata L.), hairy beggarticks (Bidens radiata Thuill.), bermudagrass (Cynodon dactylon (L.) Pers.), Surinam grass (Urochloa decumbens (Staph) R. D. Webster, previously named Brachiaria decumbens Stapf), large crabgrass (Digitaria sanguinalis (L.) Scop.), green foxtail (Setaria viridis (L.) P. Beauv.), goosegrass (Eleusine indica (L.) Gaertn.), johnsongrass (Sorghum halepense (L.) Pers.), kochia (Kochia scoparia (L.) Schrad.), pitted morningglory (Ipomoea lacunosa L.), purple nutsedge (Cyperus rotundus L.), common ragweed (Ambrosia elatior L.), mustard (Brassica nigra (L.) W. D. J. Koch), guineagrass (Panicum maximum Jacq.), dallisgrass (Paspalum dilatatum Poir.), barnyardgrass (Echinochloa crus-galli (L). P. Beauv.), southern sandbur (Cenchrus echinatus L.), common sowthistle (Sonchus oleraceous L.), prickly sida (Sida spinosa L.), Italian ryegrass (Lolium multiflorum Lam.), common purslane (Portulaca oleracea L.), broadleaf signalgrass (Brachiaria platyphylla (Griseb.) Nash), common groundsel (Senecio vulgaris L.), common chickweed (Stellaria media (L.) Vill/Cyr.), tropical spiderwort (Commelina benghalensis L.), annual bluegrass (Poa annua L.), downy bromegrass (Bromus tectorum L.), itchgrass (Rottboellia cochinchinensis (L.) L.f.), quackgrass (Elytrigia repens (L.) Nevski), Canada horseweed (Erigeron Canadensis L.), field bindweed (Convolvulus arvensis L.), spotted spurge (Euphorbia maculata L.), common mallow (Malva sylvestris (=s silvestris) L.), and Russian thistle (Salsola kali L. ssp. Ruthenica (Iljin) Soo) were planted and treated preemergence with test chemicals formulated in a non-phytotoxic solvent mixture which included a surfactant.
(§5) At the same time, plants selected from these weed species were treated with postemergence applications of some of the test chemicals formulated in the same manner. Plants ranged in height from 2 to 18 cm (1- to 4-leaf stage) for postemergence treatments. Treated plants and controls were maintained in a greenhouse for 12 to 14 days, after which time all species were compared to controls and visually evaluated. Plant response ratings, summarized in Table E, are based on a scale of 0 to 100 where 0 is no effect and 100 is complete control. A dash (-) response means no test result.

bipinnate beggarticks = test: Test E pre-/postemergence herbicide test; type: in vivo, Bidens bipinnata; conditions: Preemergence
Text: as §4, §5

[3] = 250 g ai/ha, scale 0 (no effect) to 100 (complete control)
[4] = 500 g ai/ha, scale 0 (no effect) to 100 (complete control)

Structure (SMILES): CCc1nc(C(C)(C)C)sc1C(=O)Nc1cccc(C(=O)NCC2CC2)n1 [Compound 215]
- Plant response rating, Ducksalad (ducksalad; 125 g ai/ha): 0
- Plant response rating, Ducksalad (ducksalad; 250 g ai/ha): 0
- Plant response rating, Ducksalad (ducksalad; 500 g ai/ha): 20
- Plant response rating, Ducksalad (ducksalad; 750 g ai/ha): 20
- Plant response rating, Ducksalad (ducksalad; 1000 g ai/ha): 75
- Plant response rating, Rice, Transplanted ([1]; 125 g ai/ha): 0
- Plant response rating, Rice, Transplanted ([1]; 250 g ai/ha): 10
- Plant response rating, Rice, Transplanted ([1]; 500 g ai/ha): 20
- Plant response rating, Rice, Transplanted ([1]; 750 g ai/ha): 20
- Plant response rating, Rice, Transplanted ([1]; 1000 g ai/ha): 35
- Plant response rating, Rice, Water Seeded ([2]; 125 g ai/ha): 20
- Plant response rating, Rice, Water Seeded ([2]; 250 g ai/ha): 35
- Plant response rating, Rice, Water Seeded ([2]; 500 g ai/ha): 45
- Plant response rating, Rice, Water Seeded ([2]; 750 g ai/ha): 45
- Plant response rating, Rice, Water Seeded ([2]; 1000 g ai/ha): 45
- Plant response rating, Junglerice (junglerice; 125 g ai/ha): 0
- Plant response rating, Junglerice (junglerice; 250 g ai/ha): 0
- Plant response rating, Junglerice (junglerice; 500 g ai/ha): 20
- Plant response rating, Junglerice (junglerice; 750 g ai/ha): 25
- Plant response rating, Junglerice (junglerice; 1000 g ai/ha): 25
- Plant response rating, Sprangletop, Bearded (bearded sprangletop; 125 g ai/ha): 20
- Plant response rating, Sprangletop, Bearded (bearded sprangletop; 250 g ai/ha): 20
- Plant response rating, Sprangletop, Bearded (bearded sprangletop; 500 g ai/ha): 20
- Plant response rating, Sprangletop, Bearded (bearded sprangletop; 750 g ai/ha): 20
- Plant response rating, Sprangletop, Bearded (bearded sprangletop; 1000 g ai/ha): 20
- Plant response rating, Redstem (purple redstem; 125 g ai/ha): 0
- Plant response rating, Redstem (purple redstem; 250 g ai/ha): 100
- Plant response rating, Redstem (purple redstem; 500 g ai/ha): 100
- Plant response rating, Redstem (purple redstem; 750 g ai/ha): 100
- Plant response rating, Redstem (purple redstem; 1000 g ai/ha): 100
- Plant response rating, Barnyardgrass (barnyardgrass; 125 g ai/ha): 0
- Plant response rating, Barnyardgrass (barnyardgrass; 250 g ai/ha): 0
- Plant response rating, Barnyardgrass (barnyardgrass; 500 g ai/ha): 0
- Plant response rating, Barnyardgrass (barnyardgrass; 750 g ai/ha): 30
- Plant response rating, Barnyardgrass (barnyardgrass; 1000 g ai/ha): 40
- Plant response rating, Watergrass, Late (late watergrass; 125 g ai/ha): 0
- Plant response rating, Watergrass, Late (late watergrass; 250 g ai/ha): 0
- Plant response rating, Watergrass, Late (late watergrass; 500 g ai/ha): 20
- Plant response rating, Watergrass, Late (late watergrass; 750 g ai/ha): 20
- Plant response rating, Watergrass, Late (late watergrass; 1000 g ai/ha): 20
- Plant response rating, Flatsedge, Rice (rice flatsedge; 125 g ai/ha): 0
- Plant response rating, Flatsedge, Rice (rice flatsedge; 250 g ai/ha): 60
- Plant response rating, Flatsedge, Rice (rice flatsedge; 500 g ai/ha): 60
- Plant response rating, Flatsedge, Rice (rice flatsedge; 750 g ai/ha): 80
- Plant response rating, Flatsedge, Rice (rice flatsedge; 1000 g ai/ha): 90

Structure (SMILES): CCNC(=O)c1ccnc(NC(=O)c2cc(C(C)(C)C)nn2CC)c1 [Compound 152]
- Plant response rating, Ducksalad (ducksalad; 8 g ai/ha): 0
- Plant response rating, Ducksalad (ducksalad; 16 g ai/ha): 70
- Plant response rating, Ducksalad (ducksalad; 32 g ai/ha): 75
- Plant response rating, Ducksalad (ducksalad; 64 g ai/ha): 80
- Plant response rating, Ducksalad (ducksalad; 125 g ai/ha): 90
- Plant response rating, Rice, Transplanted ([1]; 8 g ai/ha): 0
- Plant response rating, Rice, Transplanted ([1]; 16 g ai/ha): 20
- Plant response rating, Rice, Transplanted ([1]; 32 g ai/ha): 25
- Plant response rating, Rice, Transplanted ([1]; 64 g ai/ha): 40
- Plant response rating, Rice, Transplanted ([1]; 125 g ai/ha): 45
- Plant response rating, Rice, Water Seeded ([2]; 8 g ai/ha): 0
- Plant response rating, Rice, Water Seeded ([2]; 16 g ai/ha): 20
- Plant response rating, Rice, Water Seeded ([2]; 32 g ai/ha): 30
- Plant response rating, Rice, Water Seeded ([2]; 64 g ai/ha): 40
- Plant response rating, Rice, Water Seeded ([2]; 125 g ai/ha): 45
- Plant response rating, Junglerice (junglerice; 8 g ai/ha): 0
- Plant response rating, Junglerice (junglerice; 16 g ai/ha): 0
- Plant response rating, Junglerice (junglerice; 32 g ai/ha): 0
- Plant response rating, Junglerice (junglerice; 64 g ai/ha): 0
- Plant response rating, Junglerice (junglerice; 125 g ai/ha): 30
- Plant response rating, Kochia (kochia; 62 g ai/ha, scale 0 to 100): 0
- Plant response rating, Kochia (kochia; 125 g ai/ha, scale 0 to 100): 85
- Plant response rating, Kochia (kochia; [3]): 85
- Plant response rating, Kochia (kochia; [4]): 95
- Plant response rating, Sprangletop, Bearded (bearded sprangletop; 8 g ai/ha): 30
- Plant response rating, Sprangletop, Bearded (bearded sprangletop; 16 g ai/ha): 30
- Plant response rating, Sprangletop, Bearded (bearded sprangletop; 32 g ai/ha): 30
- Plant response rating, Sprangletop, Bearded (bearded sprangletop; 64 g ai/ha): 35
- Plant response rating, Sprangletop, Bearded (bearded sprangletop; 125 g ai/ha): 40
- Plant response rating, Redstem (purple redstem; 8 g ai/ha): 0
- Plant response rating, Redstem (purple redstem; 16 g ai/ha): 0
- Plant response rating, Redstem (purple redstem; 32 g ai/ha): 60
- Plant response rating, Redstem (purple redstem; 64 g ai/ha): 85
- Plant response rating, Redstem (purple redstem; 125 g ai/ha): 90
- Plant response rating, Barnyardgrass (barnyardgrass; 8 g ai/ha): 0
- Plant response rating, Barnyardgrass (barnyardgrass; 16 g ai/ha): 0
- Plant response rating, Barnyardgrass (barnyardgrass; 32 g ai/ha): 0
- Plant response rating, Barnyardgrass (barnyardgrass; 64 g ai/ha): 10
- Plant response rating, Barnyardgrass (barnyardgrass; 125 g ai/ha): 35
- Plant response rating, Watergrass, Late (late watergrass; 8 g ai/ha): 0
- Plant response rating, Watergrass, Late (late watergrass; 16 g ai/ha): 0
- Plant response rating, Watergrass, Late (late watergrass; 32 g ai/ha): 15
- Plant response rating, Watergrass, Late (late watergrass; 64 g ai/ha): 20
- Plant response rating, Watergrass, Late (late watergrass; 125 g ai/ha): 40
- Plant response rating, Flatsedge, Rice (rice flatsedge; 8 g ai/ha): 75
- Plant response rating, Flatsedge, Rice (rice flatsedge; 16 g ai/ha): 75
- Plant response rating, Flatsedge, Rice (rice flatsedge; 32 g ai/ha): 75
- Plant response rating, Flatsedge, Rice (rice flatsedge; 64 g ai/ha): 90
- Plant response rating, Flatsedge, Rice (rice flatsedge; 125 g ai/ha): 95

Structure (SMILES): CCc1nn(C(C)(C)CC)nc1C(=O)Nc1cccc(C(=O)N(C)C)c1 [Compound 372]
- Plant response rating, Beggarticks, Bip. (bipinnate beggarticks; 62 g ai/ha, scale 0 to 100): 10
- Plant response rating, Beggarticks, Bip. (bipinnate beggarticks; 125 g ai/ha, scale 0 to 100): 40
- Plant response rating, Beggarticks, Bip. (bipinnate beggarticks; [3]): 50
- Plant response rating, Beggarticks, Bip. (bipinnate beggarticks; [4]): 60
